The source of these data is patent US7018828B1, “Microbial culture medium containing agar and iota carrageenan” (priority 2001, dated 2006).

Series [1] in a line: Syneresis of Mueller-Hinton agar at various iota carrageenan concentrations with and without calcium. Format: physicochemical. The settings on record: 1 mM calcium added; media with 0.4%, 0.6% and 0.8% iota carrageenan. The method, then: In a second example, research was conducted to determine the ability of iota carrageenan to stabilize agar gels at a variety of concentrations of carrageenan with and without calcium. The results of this research are summarized in the tables of FIG. 41A entitled: “The Effect of Iota Carrageenan, Without Added Calcium, on Syneresis of Mueller-Hinton Agar,” and in FIG. 42A, entitled: “The Effect of Iota Carrageenan, with 1 mM added Calcium, on Syneresis of Mueller-Hinton Agar. The graphs associated with the above two figures found in FIG. 41B and 42B pictorially illustrate the syneresis-reducing-effect of iota carrageenan and the synergistic effects of adding calcium with certain concentrations of iota carrageenan

The nature of series [2]: Syneresis of agar-based media (Blood, Chocolate, MacConkey, Azide blood agar) after storage. Type of series: physicochemical. The following applies: 0.2% iota carrageenan plus 1 mM calcium chloride; each of four agars; 28 days at 5° C. On the procedure:
In a first example, the ability of iota carrageenan to stabilize agar-based media was assessed. The media chosen for this example were used in several of the embodiments of the agar-based media of the invention listed in this application. More specifically, in this example, Blood agar, Chocolate agar, MacConkey agar, and Azide blood agar were each prepared three different ways: (1) without any additions, to serve as a control, (2) with the addition of 0.2% (final concentration) Iota Carrageenan, and (3) with the addition of 0.2% Iota Carrageenan plus 1 mM Calcium chloride. These additions were made at time of hydration as described above, and prior to autoclaving. Following the sterilization step (autoclaving), the processes of preparing blood agar, chocolate agar and azide blood agar from the base media were performed using standard microbiology methods. Defibrinated sterile sheep red blood cells and sodium azide were two of the reagents used. The complete MacConkey medium was prepared using all three ways prior to autoclaving. Each of the twelve different media were dispensed at 50° C. into four polystyrene sterile T-flasks (25 cm^2) with tight-fitting screw caps and stored for 28 days at refrigerator temperature(5° C.), at which point the amount of water of syneresis was measured. […]

Turning to `[Ca+2].[Cl-].[Cl-]` [calcium, Calcium chloride], the “syneresis of Mueller-Hinton agar, effect of adding calcium” value in series [1] was “effect of adding calcium is also apparent”. Also, the “amount of water of syneresis, effect of adding calcium to carrageenan media” value in series [2] is “further reduced the amount of syneresis”.
